Measurements reported in PMC12669040, “Tumour-specific STING agonist synthesis via a two-component prodrug system” (Nature Chemistry, 2025).
“And” between values parts separate entries of the source, which are not always exact repeats. Equal entries are not always repeated.

Legend:
[1] = Colorimetric alkylation rate constant assay with TNB^2− as non-specific thiol; assay type: physicochemical; set-up: second-order: unit not given here; conditions: for remaining [B]: in µM
[2] = Colorimetric alkylation rate constant assay with thiol N1; assay type: physicochemical; conditions: for remaining [A]: N1 from calibration curve (N1 in uM); for remaining [A] / remaining [B]: in µM
[3] = Time 2891 sec, [B]0 = 250, Replicates 1-3
[4] = Time 3071 sec, [B]0 = 250, Replicates 1-3
[5] = Time 3252 sec, [B]0 = 250, Replicates 1-3
[6] = Time 3433 sec, [B]0 = 250, Replicates 1-3
[7] = Time 3613 sec, [B]0 = 250, Replicates 1-3

O=C(CCl)Nc1ccc(F)cc1 [Compound C3]
remaining [B] ([1]; Replicate 1, 723 sec, [B]0 = 250): 244.563
remaining [B] ([1]; Replicate 1, 903 sec, [B]0 = 250): 244.311
remaining [B] ([1]; Replicate 1, 1084 sec, [B]0 = 250): 243.946
remaining [B] ([1]; Replicate 1, 1265 sec, [B]0 = 250): 243.644
remaining [B] ([1]; Replicate 1, 1445 sec, [B]0 = 250): 243.291
remaining [B] ([1]; Replicate 1, 1626 sec, [B]0 = 250): 242.976
remaining [B] ([1]; Replicate 1, 1806 sec, [B]0 = 250): 242.497
remaining [B] ([1]; Replicate 1, 1988 sec, [B]0 = 250): 242.245
remaining [B] ([1]; Replicate 1, 2168 sec, [B]0 = 250): 242.005
remaining [B] ([1]; Replicate 1, 2349 sec, [B]0 = 250): 241.552
remaining [B] ([1]; Replicate 1, 2530 sec, [B]0 = 250): 241.262
remaining [B] ([1]; Replicate 1, 2710 sec, [B]0 = 250): 240.985
remaining [B] ([1]; Replicate 2, 542 sec, [B]0=250): 244.808
remaining [B] ([1]; Replicate 2, 723 sec, [B]0=250): 244.493
remaining [B] ([1]; Replicate 2, 903 sec, [B]0=250): 244.204
remaining [B] ([1]; Replicate 2, 1084 sec, [B]0=250): 243.889
remaining [B] ([1]; Replicate 2, 1265 sec, [B]0=250): 243.586
remaining [B] ([1]; Replicate 2, 1445 sec, [B]0=250): 243.259
remaining [B] ([1]; Replicate 2, 1626 sec, [B]0=250): 242.931
remaining [B] ([1]; Replicate 2, 1806 sec, [B]0=250): 242.666
remaining [B] ([1]; Replicate 2, 1988 sec, [B]0=250): 242.326
remaining [B] ([1]; Replicate 2, 2168 sec, [B]0=250): 242.036
remaining [B] ([1]; Replicate 2, 2349 sec, [B]0=250): 241.734
remaining [B] ([1]; Replicate 2, 2530 sec, [B]0=250): 241.457
remaining [B] ([1]; Replicate 2, 2710 sec, [B]0=250): 241.142
remaining [B] ([1]; Replicate 3, 723 sec, [B]0=250): 244.853
remaining [B] ([1]; Replicate 3, 903 sec, [B]0=250): 244.526
remaining [B] ([1]; Replicate 3, 1084 sec, [B]0=250): 244.173
remaining [B] ([1]; Replicate 3, 1265 sec, [B]0=250): 243.82
remaining [B] ([1]; Replicate 3, 1445 sec, [B]0=250): 243.568
remaining [B] ([1]; Replicate 3, 1626 sec, [B]0=250): 243.24
remaining [B] ([1]; Replicate 3, 1806 sec, [B]0=250): 242.913
remaining [B] ([1]; Replicate 3, 1988 sec, [B]0=250): 242.686
remaining [B] ([1]; Replicate 3, 2168 sec, [B]0=250): 242.333
remaining [B] ([1]; Replicate 3, 2349 sec, [B]0=250): 241.955
remaining [B] ([1]; Replicate 3, 2530 sec, [B]0=250): 241.627
remaining [B] ([1]; Replicate 3, 2710 sec, [B]0=250): 241.35
second-order [1, 3]: 0.0003934 and 0.0003816 and 0.000404
remaining [B] [1, 3]: 241.06 and 240.569 and 240.801
second-order [1, 4]: 0.0004067 and 0.0003942 and 0.0004162
remaining [B] [1, 4]: 240.783 and 240.304 and 240.512
second-order [1, 5]: 0.0004206 and 0.0004081 and 0.0004267
remaining [B] [1, 5]: 240.481 and 240.077 and 240.209
second-order [1, 6]: 0.0004352 and 0.0004273 and 0.0004471
remaining [B] [1, 6]: 240.065 and 239.636 and 239.894
second-order [1, 7]: 0.0004498 and 0.0004372 and 0.0004612
remaining [B] [1, 7]: 239.851
second-order ([1]; Time 3794 sec, [B]0 = 250, Replicates 1-3): 0.0004633 and 0.0004542 and 0.0004754
second-order ([1]; Time 3974 sec, [B]0 = 250, Replicates 1-3): 0.0004793 and 0.0004648 and 0.0004891
second-order ([1]; Time 4155 sec, [B]0 = 250, Replicates 1-3): 0.0004918 and 0.0004819 and 0.0004992
second-order ([1]; Time 4336 sec, [B]0 = 250, Replicates 1-3): 0.0005073 and 0.0004944 and 0.000519
second-order ([1]; Time 4516 sec, [B]0 = 250, Replicates 1-3): 0.0005217 and 0.00051 and 0.0005352
second-order ([1]; Time 4697 sec, [B]0 = 250, Replicates 1-3): 0.0005368 and 0.0005292 and 0.0005485
second-order ([1]; Time 4878 sec, [B]0 = 250, Replicates 1-3): 0.0005501 and 0.00054 and 0.0005589
second-order ([1]; Time 5058 sec, [B]0 = 250, Replicates 1-3): 0.0005616 and 0.0005558 and 0.0005759
second-order ([1]; Time 5239 sec, [B]0 = 250, Replicates 1-3): 0.0005799 and 0.0005704 and 0.0005876
second-order ([1]; Time 5419 sec, [B]0 = 250, Replicates 1-3): 0.0005928 and 0.0005784 and 0.0006067
second-order ([1]; Time 5600 sec, [B]0 = 250, Replicates 1-3): 0.000607 and 0.0005999 and 0.0006197
second-order ([1]; Time 5781 sec, [B]0 = 250, Replicates 1-3): 0.0006238 and 0.0006104 and 0.000634
second-order ([1]; Time 5961 sec, [B]0 = 250, Replicates 1-3): 0.0006375 and 0.0006271 and 0.0006509
remaining [A] ([2]; Replicate 1, time 576 sec): 79.3821
remaining [B] ([2]; Replicate 1, time 576 sec, [B]0 = 250): 225.262
second-order ([2]; Replicate 1, time 576 sec, second-order plot value): 0.001145
remaining [A] ([2]; Replicate 1, time 606 sec): 78.3561
remaining [B] ([2]; Replicate 1, time 606 sec, [B]0 = 250): 224.236
second-order ([2]; Replicate 1, time 606 sec, second-order plot value): 0.001203
remaining [A] ([2]; Replicate 2, time 576 sec): 78.9353
remaining [B] ([2]; Replicate 2, time 576 sec, [B]0=250): 225.794
second-order ([2]; Replicate 2, time 576 sec, second-order plot value): 0.001128
remaining [A] ([2]; Replicate 2, time 606 sec): 77.6031
remaining [B] ([2]; Replicate 2, time 606 sec, [B]0=250): 224.461
second-order ([2]; Replicate 2, time 606 sec, second-order plot value): 0.001203
remaining [A] ([2]; Replicate 3, time 576 sec): 80.3332
remaining [B] ([2]; Replicate 3, time 576 sec, [B]0=250): 225.786
second-order ([2]; Replicate 3, time 576 sec, second-order plot value): 0.001111
remaining [A] ([2]; Replicate 3, time 606 sec): 79.3051
remaining [B] ([2]; Replicate 3, time 606 sec, [B]0=250): 224.758
second-order ([2]; Replicate 3, time 606 sec, second-order plot value): 0.001168
remaining [B] ([2]; time 0 sec, [B]0 = 250, replicates 1-3): 246.537 and 247.093 and 245.89
second-order ([2]; time 0 sec, replicates 1-3): 0.000164 and 0.0001357 and 0.0001139
remaining [B] ([2]; time 30 sec, [B]0 = 250, replicates 1-3): 245.319 and 244.842 and 244.643
second-order ([2]; time 30 sec, replicates 1-3): 0.0002157 and 0.000185 and 0.0002054
remaining [B] ([2]; time 60 sec, [B]0 = 250, replicates 1-3): 243.453 and 243.816 and 242.942
second-order ([2]; time 60 sec, replicates 1-3): 0.0002877 and 0.0002622 and 0.000248
remaining [B] ([2]; time 91 sec, [B]0 = 250, replicates 1-3): 242.316 and 242.334 and 241.723
second-order ([2]; time 91 sec, replicates 1-3): 0.0003403 and 0.0003102 and 0.0003108
remaining [B] ([2]; time 121 sec, [B]0 = 250, replicates 1-3): 241.072 and 241.108 and 240.278
second-order ([2]; time 121 sec, replicates 1-3): 0.0004041 and 0.0003637 (2×)
remaining [B] ([2]; time 151 sec, [B]0 = 250, replicates 1-3): 240.152 and 239.968 and 239.257
second-order ([2]; time 151 sec, replicates 1-3): 0.0004499 and 0.0004039 and 0.0004137
remaining [B] ([2]; time 182 sec, [B]0 = 250, replicates 1-3): 239.232 and 238.714 and 238.265
second-order ([2]; time 182 sec, replicates 1-3): 0.0004951 and 0.0004446 and 0.0004698
remaining [B] ([2]; time 212 sec, [B]0 = 250, replicates 1-3): 238.15 and 237.631 and 237.245
second-order ([2]; time 212 sec, replicates 1-3): 0.0005423 and 0.0004932 and 0.0005191
remaining [B] ([2]; time 242 sec, [B]0 = 250, replicates 1-3): 236.96 and 236.491 and 236.366
second-order ([2]; time 242 sec, replicates 1-3): 0.0005835 and 0.0005476 and 0.0005718
remaining [B] ([2]; time 273 sec, [B]0 = 250, replicates 1-3): 235.85 and 235.38 and 235.431
second-order ([2]; time 273 sec, replicates 1-3): 0.0006281 and 0.0005992 and 0.0006241
remaining [B] ([2]; time 303 sec, [B]0 = 250, replicates 1-3): 234.308 and 234.268 and 234.354
second-order ([2]; time 303 sec, replicates 1-3): 0.0006802 and 0.0006724 and 0.0006773
remaining [B] ([2]; time 333 sec, [B]0 = 250, replicates 1-3): 233.361 and 233.157 and 233.277
second-order ([2]; time 333 sec, replicates 1-3): 0.0007331 and 0.0007182 and 0.0007315
remaining [B] ([2]; time 364 sec, [B]0 = 250, replicates 1-3): 232.279 and 232.188 and 232.341
second-order ([2]; time 364 sec, replicates 1-3): 0.0007799 and 0.0007714 and 0.0007795
remaining [B] ([2]; time 394 sec, [B]0 = 250, replicates 1-3): 231.197 and 231.247 and 230.981
second-order ([2]; time 394 sec, replicates 1-3): 0.0008491 and 0.0008256 and 0.0008268
remaining [B] ([2]; time 424 sec, [B]0 = 250, replicates 1-3): 230.602 and 230.05 and 230.442
second-order ([2]; time 424 sec, replicates 1-3): 0.000877 and 0.0008557 and 0.000888
remaining [B] ([2]; time 454 sec, [B]0 = 250, replicates 1-3): 229.357 and 229.309 and 229.478
second-order ([2]; time 454 sec, replicates 1-3): 0.0009274 and 0.0009198 and 0.0009265
remaining [B] ([2]; time 485 sec, [B]0 = 250, replicates 1-3): 228.681 and 228.084 and 229.195
second-order ([2]; time 485 sec, replicates 1-3): 0.0009424 and 0.0009551 and 0.0009912
remaining [B] ([2]; time 515 sec, [B]0 = 250, replicates 1-3): 227.112 and 227.086 and 227.097
second-order ([2]; time 515 sec, replicates 1-3): 0.001056 and 0.001039 and 0.001045
remaining [B] ([2]; time 545 sec, [B]0 = 250, replicates 1-3): 226.462 and 226.317 and 225.935
second-order ([2]; time 545 sec, replicates 1-3): 0.00112 and 0.001074 and 0.001087
